Assay results taken from article PMC9569529, “Safe and Efficient Sigma1 Ligand: A Potential Drug Candidate for Multiple Sclerosis” (International Journal of Molecular Sciences, 2022).
Values joined by “and” are separate entries in the source; they are usually repeats but may differ in a detail not shown here. Equal values may be shown once. Read-outs that look alike come from different tables or passages of the source.

Assays:
TK6 cells = test: In vitro micronucleus test
Procedure: The frequency of micronucleated (MN) cells was determined out of at least 2000 mononucleated cells.

[1] = Pharmacokinetic study in plasma and brain; type: in vivo, male C57BL/6 mice; details: 1 mg/kg; for Brain/Plasma / Kp at 0.5 h: at 30 min; for Brain AUC t^∞/AUC ∞: unit assumed; for Kp at 0.5 h / Tmax / half-life / concentration at 30 min / bioavailability: male, C57BL/6, mouse
Procedure: A pharmacokinetic (PK) study was performed by Eurofins Cerep (Poitiers, France) in male C57BL/6 mice (20–30 g) following i.v. and p.o. administrations of compound 7i at 1 mg/kg.
The plasma and perfused brain samples were collected at 0, 30, 60, 120, 240 and 280 min after treatment administration (n = 3 animal/time point). Animals were terminated under inhalant CO2 euthanasia. Blood was collected via cardiac puncture. Aliquots were collected in tubes coated with lithium heparin and centrifuged. The plasma was harvested and kept frozen at −70 °C until further processing. Immediately following the collection of the blood sample, animals were perfused with heparinized saline (10 IU/mL). The brain was collected, rinsed with saline to remove residual blood, weighed and stored at −70 °C until further analysis.
Plasma samples were processed using acetonitrile precipitation and analyzed by LC-MS/MS. A plasma calibration curve was generated. Aliquots of drug-free plasma were spiked with compound 7i at the specified concentration levels. The spiked plasma samples were processed together with the unknown plasma samples using the same procedure.
Each brain was homogenized for 10 s on ice in a proper volume of cold phosphate-buffered saline (PBS) at pH 7.4. The homogenate was centrifuged at 5400× g for 15 min at 4 °C. Supernatants were subsequently processed using acetonitrile precipitation and analyzed by LC-MS/MS. A brain calibration curve was generated. Aliquots of drug-free brain homogenate were spiked with compound 7i at the specified concentration levels. The spiked brain homogenate samples were processed together with the unknown brain homogenate samples using the same procedure.
Concentrations of compound 7i in the unknown plasma and brain samples were determined using the respective calibration curve. The reportable linear range of the assay was determined, along with the lower limit of quantitation (LLQ).
The exposure levels of compound 7i in the plasma and brain samples as determined by LC-MS/MS were reported (ng/mL). The [brain]/[plasma] ratios were calculated.
Pharmacokinetic modeling was performed using the non-compartmental method based on statistical moments. In this method, exchanges between kinetic spaces are expressed in time. The curves were obtained using R software (Package ggplot2, v3.3.6).

[2] = test system: dizocilpine-induced learning deficits; test: Dizocilpine-induced learning deficits, step-through passive avoidance; type: in vivo, male Swiss mice
Procedure: The activity of compound 7i was evaluated in regard to its ability to reverse dizocilpine-induced learning deficits. Two behavioral tests were performed by Amylgen (Montferrier-sur-Lez, France) on male Swiss mice (aged 6–9 weeks). All compounds (7i and controls) were intraperitoneally injected.
Animals were tested for spontaneous alternation performance in the Y-maze, an index of spatial working memory. Made of grey polyvinylchloride, the Y-maze has an arm which is 40 cm long, 13 cm high and 3 cm wide at the bottom and 10 cm wide at the top, converging at an equal angle. Each mouse was placed at the end of one arm and allowed to move freely through the maze during an 8-min session. The series of arm entries, including possible returns into the same arm, were checked visually. An alternation was defined as entries into all three arms on consecutive occasions. The number of maximum alternations was therefore the total number of arm entries minus two, and the percentage of alternation was calculated as: (actual alternations/maximum alternations) × 100. Parameters included the percentage of alternation (memory index) and the total number of arm entries (exploration index). Animals showing extreme behavior (alternation < 20% or >90% or number of arm entries < 10) are usually discarded from the calculations. […] Step-through latency (the latency in time spent to enter the dark compartment) and the number of vocalizations were recorded. […] Step-through latency was recorded up to 300 s. When either the mouse entered the dark compartment or 300 s had elapsed (they were therefore manually placed in it), escape latency (latency to exit from the dark compartment) was recorded with a value of up to 300 s. […]

[3] = 3 h treatment + 24 h recovery, +S9, 68.75 µg/mL
[4] = 3 h treatment + 24 h recovery, +S9, 137.5 µg/mL
[5] = 3 h treatment + 24 h recovery, +S9, 275 µg/mL
[6] = 3 h treatment + 24 h recovery, −S9, 68.78 µg/mL
[7] = 3 h treatment + 24 h recovery, −S9, 137.5 µg/mL
[8] = 3 h treatment + 24 h recovery, −S9, 275 µg/mL
[9] = 27 h continuous treatment, −S9, 68.75 µg/mL
[10] = 27 h continuous treatment, −S9, 137.5 µg/mL
[11] = 27 h continuous treatment, −S9, 275 µg/mL

CN(CCCNC(=O)c1ccc(Cl)cc1)Cc1ccccc1 [compound 7i]
MN/2 × 10^3 Cells (TK6 cells; [3]): 10.5
RS (%) (TK6 cells; [3]): 106.1%
MN/2 × 10^3 Cells (TK6 cells; [4]): 6.0
RS (%) (TK6 cells; [4]): 97.2%
MN/2 × 10^3 Cells (TK6 cells; [5]): 9.0
RS (%) (TK6 cells; [5]): 103.7%
MN/2 × 10^3 Cells (TK6 cells; [6]): 6.0
RS (%) (TK6 cells; [6]): 94.1%
MN/2 × 10^3 Cells (TK6 cells; [7]): 8.0
RS (%) (TK6 cells; [7]): 92.7%
MN/2 × 10^3 Cells (TK6 cells; [8]): 8.0
RS (%) (TK6 cells; [8]): 80.0%
MN/2 × 10^3 Cells (TK6 cells; [9]): 1.0
RS (%) (TK6 cells; [9]): 86.6%
MN/2 × 10^3 Cells (TK6 cells; [10]): 7.0
RS (%) (TK6 cells; [10]): 84.2%
MN/2 × 10^3 Cells (TK6 cells; [11]): 6.0
RS (%) (TK6 cells; [11]): 70.1%
genotoxic characteristics (micronucleus, conclusion) (TK6 cells; TK6 cells, ±S9): no genotoxic characteristics
increase of total clearance, p.o. versus i.v. [1]: 20 times
C30 after i.v. relative to p.o. ([1]; in the plasma or in the brain): more than 10 times
CLT ([1]; i.v.): 3.8 mL/min
CLbrain ([1]; i.v.): 1.8 mL/min
D (diffusion in the brain) ([1]; i.v.): 62% and 61.7%
MAT ([1]; i.v.): 0 min
Plasma AUC t^∞/AUC ∞ ([1]; i.v.): 0.9
Brain/Plasma ([1]; i.v.): 2.9
Brain AUC t^∞/AUC ∞ ([1]; i.v., brain): 5.9%
Plasma Cmax (simulated) ([1]; i.v., mouse plasma, simulated): 180 ng/mL
Kp at 0.5 h ([1]; brain, iv): 3
Tmax ([1]; brain, iv, i.v., brain, read-out: Brain tmax): ≤ 30 min
half-life ([1]; brain, iv, read-out: Brain t1/2 el): 96.4 min
Kp at 0.5 h ([1]; brain, po): 3
Tmax ([1]; brain, po, p.o., brain, read-out: Brain tmax): ≤ 30 min
half-life ([1]; brain, po, read-out: Brain t1/2 el): 78.9 min
concentration at 30 min ([1]; iv, brain, read-out: Brain C30): 234 ng/mL
bioavailability ([1]; plasma, iv): 100%
concentration at 30 min ([1]; plasma, iv, read-out: Plasma C30): 79.8 ng/mL
Tmax ([1]; plasma, iv, i.v., mouse plasma, read-out: Plasma tmax): 0 min
half-life ([1]; plasma, iv, read-out: Plasma t1/2 el): 44.5 min
bioavailability ([1]; plasma, po): 5%
concentration at 30 min ([1]; plasma, po, read-out: Plasma C30): 6.4 ng/mL
Tmax ([1]; plasma, po, p.o., mouse plasma, read-out: Plasma tmax): < 30 min
half-life ([1]; plasma, po, read-out: Plasma t1/2 el): 25.5 min
concentration at 30 min ([1]; po, brain, read-out: Brain C30): 20.7 ng/mL
CLT ([1]; p.o.): 74.9 mL/min
CLbrain ([1]; p.o.): 12.8 mL/min
MAT ([1]; p.o.): 16.5 min
Plasma AUC t^∞/AUC ∞ ([1]; p.o.): 6.1
Vd ([1]; p.o.): 0.168 L/kg
Brain/Plasma ([1]; p.o.): 3.2
Brain AUC t^∞/AUC ∞ ([1]; p.o., brain): 7.6%
dizocilpine-induced learning deficits, passive avoidance ([2]; 0.1 and 0.5 mg/kg i.p., dizocilpine 0.15 mg/kg): significantly attenuated
beneficial effect in passive avoidance with NE-100 treatment ([2]; plus NE-100 at 3 mg/kg i.p.): prevented
